Source: the NIST ThermoML archive (doi:10.1016/j.jct.2008.12.021)

Test: osmotic coefficient (dimensionless); mn = molality of the nth substance listed, in mol/kg
Details: 323.15 K, Liquid, vapour pressure osmometer

COS(=O)(=O)[O-].Cn1cc[n+](C)c1 [1,3-dimethylimidazolium methylsulfate] + CC(C)O
Details	osmotic coefficient
m1 = 0.0241	0.914
m1 = 0.0557	0.846
m1 = 0.2089	0.683
m1 = 0.3053	0.614
m1 = 0.3982	0.588
m1 = 0.6947	0.509
m1 = 0.9721	0.461
m1 = 1.274	0.442
m1 = 1.66	0.416
m1 = 2.058	0.392
m1 = 2.447	0.364
m1 = 2.827	0.343
m1 = 3.313	0.329
m1 = 3.712	0.323
m1 = 4.112	0.298

COS(=O)(=O)[O-].Cn1cc[n+](C)c1 [1,3-dimethylimidazolium methylsulfate] + CCCO
Details	osmotic coefficient
m1 = 0.0512	0.848
m1 = 0.079	0.772
m1 = 0.0997	0.727
m1 = 0.2023	0.67
m1 = 0.2902	0.59
m1 = 0.3952	0.544
m1 = 0.488	0.526
m1 = 0.6881	0.492
m1 = 0.9815	0.454
m1 = 1.299	0.432
m1 = 1.691	0.396
m1 = 2.097	0.375
m1 = 2.545	0.36
m1 = 2.929	0.343
m1 = 3.323	0.334
m1 = 3.71	0.322

COS(=O)(=O)[O-].Cn1cc[n+](C)c1 [1,3-dimethylimidazolium methylsulfate] + CCO
Details	osmotic coefficient
m1 = 0.0289	0.815
m1 = 0.0374	0.794
m1 = 0.0789	0.719
m1 = 0.0991	0.687
m1 = 0.1941	0.626
m1 = 0.3285	0.56
m1 = 0.4326	0.53
m1 = 0.5312	0.503
m1 = 0.6925	0.479
m1 = 0.9868	0.449
m1 = 1.284	0.424
m1 = 1.699	0.399
m1 = 2.078	0.382
m1 = 2.489	0.363
m1 = 2.937	0.345
m1 = 3.314	0.326
m1 = 3.709	0.325
m1 = 4.016	0.331

CCCCn1cc[n+](C)c1.COS(=O)(=O)[O-] [1-butyl-3-methylimidazolium methyl sulfate] + CC(C)O
Details	osmotic coefficient
m1 = 0.0524	0.95
m1 = 0.0842	0.905
m1 = 0.1084	0.871
m1 = 0.2087	0.799
m1 = 0.3036	0.733
m1 = 0.4106	0.685
m1 = 0.4869	0.648
m1 = 0.682	0.588
m1 = 0.9823	0.523
m1 = 1.32	0.493
m1 = 1.692	0.488
m1 = 2.05	0.502
m1 = 2.446	0.48
m1 = 2.829	0.455
m1 = 3.311	0.451

CCCCn1cc[n+](C)c1.COS(=O)(=O)[O-] [1-butyl-3-methylimidazolium methyl sulfate] + CCCO
Details	osmotic coefficient
m1 = 0.0437	0.873
m1 = 0.0547	0.829
m1 = 0.2041	0.691
m1 = 0.3571	0.639
m1 = 0.5002	0.628
m1 = 0.6627	0.628
m1 = 0.8487	0.629
m1 = 1.007	0.629
m1 = 1.28	0.628
m1 = 1.665	0.62
m1 = 2.143	0.599
m1 = 2.937	0.581

CCCCn1cc[n+](C)c1.COS(=O)(=O)[O-] [1-butyl-3-methylimidazolium methyl sulfate] + CCO
Details	osmotic coefficient
m1 = 0.0495	0.78
m1 = 0.0783	0.716
m1 = 0.176	0.646
m1 = 0.3283	0.573
m1 = 0.3907	0.55
m1 = 0.5167	0.529
m1 = 0.6846	0.508
m1 = 0.9851	0.496
m1 = 1.318	0.499
m1 = 1.727	0.48
m1 = 2.093	0.474
m1 = 2.507	0.465
m1 = 2.914	0.448
m1 = 3.311	0.424
m1 = 3.697	0.408
